Data on 25 compounds can be found in patent publication US9458110B2, “Phenylpyrazole derivatives as potent ROCK1 and ROCK2 inhibitors” (BRISTOL-MYERS SQUIBB COMPANY, priority 2013, dated 2016).

The term IC50 denotes the concentration at which inhibition is half-maximal. Lower therefore signals greater potency in that assay.

The target in assay [1] is ROCK1 (Homo sapiens (Human), UniProt Q13464). The assay is described as follows: ROCK assay (Caliper LABCHIP peptide phosphorylation), ROCK1.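 Further: Read-out is separation of phosphorylated from unphosphorylated peptide, with kinase activity inhibition computed at every concentration of a dose-response series.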 To be noted: 5 μM ATP, 1.5 μM peptide substrate. Type of assay: biochemical.
Chain of ROCK1 (Q13464 whole entry, species assumed): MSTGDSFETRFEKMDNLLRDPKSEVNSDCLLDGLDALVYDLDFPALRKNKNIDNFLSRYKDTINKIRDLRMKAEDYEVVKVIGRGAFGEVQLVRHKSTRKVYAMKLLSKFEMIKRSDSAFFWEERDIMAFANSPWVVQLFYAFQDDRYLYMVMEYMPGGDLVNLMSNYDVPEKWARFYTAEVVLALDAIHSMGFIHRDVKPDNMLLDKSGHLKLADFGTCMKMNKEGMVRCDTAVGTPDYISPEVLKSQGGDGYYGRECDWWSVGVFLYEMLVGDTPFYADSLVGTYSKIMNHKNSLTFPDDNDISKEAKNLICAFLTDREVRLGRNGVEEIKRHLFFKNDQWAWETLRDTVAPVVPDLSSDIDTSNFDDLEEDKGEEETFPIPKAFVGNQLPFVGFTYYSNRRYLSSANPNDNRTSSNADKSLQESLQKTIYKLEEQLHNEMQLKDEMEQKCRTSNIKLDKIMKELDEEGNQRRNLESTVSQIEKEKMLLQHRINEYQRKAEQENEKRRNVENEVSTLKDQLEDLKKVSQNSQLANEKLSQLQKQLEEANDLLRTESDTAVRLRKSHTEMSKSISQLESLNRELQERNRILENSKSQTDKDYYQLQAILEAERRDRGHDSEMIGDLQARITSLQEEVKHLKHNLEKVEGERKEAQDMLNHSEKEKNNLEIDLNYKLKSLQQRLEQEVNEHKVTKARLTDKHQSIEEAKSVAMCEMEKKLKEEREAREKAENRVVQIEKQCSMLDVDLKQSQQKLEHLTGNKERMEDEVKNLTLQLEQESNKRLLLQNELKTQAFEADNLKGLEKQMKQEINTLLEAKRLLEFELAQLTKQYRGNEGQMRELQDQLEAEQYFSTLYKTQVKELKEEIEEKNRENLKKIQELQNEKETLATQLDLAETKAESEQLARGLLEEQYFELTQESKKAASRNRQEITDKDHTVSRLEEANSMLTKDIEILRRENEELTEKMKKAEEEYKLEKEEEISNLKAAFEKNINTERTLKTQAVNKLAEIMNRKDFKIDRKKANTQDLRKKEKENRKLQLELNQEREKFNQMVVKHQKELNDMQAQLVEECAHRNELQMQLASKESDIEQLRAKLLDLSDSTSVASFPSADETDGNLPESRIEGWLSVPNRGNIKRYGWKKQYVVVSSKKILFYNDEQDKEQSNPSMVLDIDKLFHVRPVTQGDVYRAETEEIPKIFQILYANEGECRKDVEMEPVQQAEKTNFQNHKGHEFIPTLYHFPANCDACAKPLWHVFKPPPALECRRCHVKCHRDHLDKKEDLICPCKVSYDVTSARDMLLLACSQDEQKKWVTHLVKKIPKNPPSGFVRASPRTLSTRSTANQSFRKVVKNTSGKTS
Assay [2] concerns the target ROCK2 (Homo sapiens (Human), UniProt O75116). The assay is described as follows: ROCK assay (Caliper LABCHIP peptide phosphorylation), ROCK2.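 Further: reaction stopped with EDTA, then phosphorylated and unphosphorylated peptide resolved by microfluidic electrophoresis, kinase inhibition computed at each compound concentration in dose-response series, DMSO under 2%.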 Type of assay: biochemical. The note with it: 5 μM ATP, 1.5 μM peptide substrate.

Chain of ROCK2 (O75116 whole entry, species assumed): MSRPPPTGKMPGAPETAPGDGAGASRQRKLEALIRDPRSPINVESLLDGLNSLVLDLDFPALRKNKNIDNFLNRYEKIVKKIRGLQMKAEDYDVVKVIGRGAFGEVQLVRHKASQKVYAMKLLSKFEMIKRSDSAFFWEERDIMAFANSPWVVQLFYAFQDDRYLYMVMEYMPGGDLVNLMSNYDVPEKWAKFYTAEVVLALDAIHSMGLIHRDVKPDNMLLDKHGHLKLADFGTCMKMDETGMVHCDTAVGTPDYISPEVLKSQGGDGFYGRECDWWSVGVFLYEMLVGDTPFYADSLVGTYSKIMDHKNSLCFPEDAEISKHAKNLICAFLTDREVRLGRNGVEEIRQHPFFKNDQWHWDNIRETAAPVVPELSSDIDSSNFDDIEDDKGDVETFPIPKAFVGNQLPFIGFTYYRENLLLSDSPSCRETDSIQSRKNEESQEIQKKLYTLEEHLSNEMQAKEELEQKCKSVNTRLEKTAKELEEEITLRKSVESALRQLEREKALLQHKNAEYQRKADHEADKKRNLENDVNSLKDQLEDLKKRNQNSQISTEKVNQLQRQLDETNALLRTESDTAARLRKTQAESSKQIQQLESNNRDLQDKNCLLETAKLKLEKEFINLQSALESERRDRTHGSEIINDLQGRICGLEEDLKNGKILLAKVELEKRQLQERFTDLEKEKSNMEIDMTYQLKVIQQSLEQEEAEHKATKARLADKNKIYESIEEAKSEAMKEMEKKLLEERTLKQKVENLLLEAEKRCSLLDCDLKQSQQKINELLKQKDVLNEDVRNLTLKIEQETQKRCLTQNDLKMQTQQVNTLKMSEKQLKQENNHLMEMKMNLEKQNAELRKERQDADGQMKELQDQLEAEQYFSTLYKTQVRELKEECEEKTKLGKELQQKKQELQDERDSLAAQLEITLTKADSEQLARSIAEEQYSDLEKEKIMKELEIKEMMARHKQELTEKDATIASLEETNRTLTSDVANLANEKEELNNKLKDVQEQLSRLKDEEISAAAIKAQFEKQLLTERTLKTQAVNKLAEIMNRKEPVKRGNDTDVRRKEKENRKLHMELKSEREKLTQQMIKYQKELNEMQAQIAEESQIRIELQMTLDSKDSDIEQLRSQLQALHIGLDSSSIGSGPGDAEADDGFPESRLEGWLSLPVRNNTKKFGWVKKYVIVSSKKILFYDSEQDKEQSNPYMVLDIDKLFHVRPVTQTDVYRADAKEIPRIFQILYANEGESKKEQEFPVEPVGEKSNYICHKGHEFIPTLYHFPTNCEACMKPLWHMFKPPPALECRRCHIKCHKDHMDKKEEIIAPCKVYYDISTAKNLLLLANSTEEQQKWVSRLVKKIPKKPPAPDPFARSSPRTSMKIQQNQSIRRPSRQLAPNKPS

As to `COc1cc(C(=O)NCc2cccc(C(=O)NCC(C)(C)O)c2)ccc1-c1cn[nH]c1` [Example 234, N-({3-[(2-hydroxy-2-methylpropyl)carbamoyl]phenyl}methyl)-3-methoxy-4-(1H-pyrazol-4-yl)benzamide], the results for the concentration for half-maximal inhibition (IC50) in assay [1] and in assay [2] were 3.24 nM and 0.46 nM, respectively.
With `COc1cc(C(=O)NCc2cccc(N3CCCC3)c2)ccc1-c1cn[nH]c1` [Example 87, 3-methoxy-4-(1H-pyrazol-4-yl)-N-{[3-(pyrrolidin-1-yl)phenyl]methyl} benzamide], the IC50 in assay [1] is 724 nM; in assay [2], 130 nM.
The corresponding values for `COc1cc(C(=O)NCc2ccc(Cl)cc2SCC(C)C)ccc1-c1cn[nH]c1` [Example 47, N-(4-chloro-2-(isobutylthio)benzyl)-3-methoxy-4-(1H-pyrazol-4-yl)benzamide] are more than 2000 nM and 1320 nM.
`C[C@@H](NC(=O)c1ccc(-c2cn[nH]c2)c(OC(F)F)c1)c1ccccc1` [Example 156, 3-(difluoro-methoxy)-N-[(1R)-1-phenylethyl]-4-(1H-pyrazol-4-yl)benzamide]: the results for the IC50 in assay [1] and in assay [2] were 11.4 nM and 4 nM, respectively.
The matching figures for `CC(NC(=O)c1ccc(-c2cn[nH]c2)c(C(F)F)c1)c1ccccc1F` (racemic) [Example 299, 3-(Difluoromethyl)-N-(1-(2-fluorophenyl)ethyl)-4-(1H-pyrazol-4-yl)benzamide]: 110 nM and 53.3 nM.
For the compound `COc1cc(C(=O)NC(CCN(C)C)c2ccccc2)ccc1-c1cn[nH]c1` (centres unmarked) [Example 169, N-[3-(dimethylamino)-1-phenylpropyl]-3-methoxy-4-(1H-pyrazol-4-yl)benzamide], the IC50 in assay [1] came out at 4.7 nM; in assay [2] it was 1.93 nM.
The corresponding values for `CCC(O)c1cc(C(=O)N[C@H](C)c2ccccc2)ccc1-c1cn[nH]c1` (stereo partly drawn) [Example 286, 3-(1-hydroxypropyl)-N-[(1R)-1-phenylethyl]-4-(1H-pyrazol-4-yl)benzamide] are 97.6 nM and 190 nM.
The matching figures for `COc1cc(C(=O)N[C@@H](Cc2ccc(F)cc2)C(=O)N(C)C)ccc1-c1cn[nH]c1` [Example 119, (2S)-3-(4-fluorophenyl)-2-{[3-methoxy-4-(1H-pyrazol-4-yl)phenyl] formamido}-N,N-dimethyl-propanamide]: 2270 nM and 1010 nM.
The matching figures for `COc1cccc([C@@H](C)NC(=O)c2ccc(-c3c(C)n[nH]c3C)c(C)c2)c1` [Example 153, 4-(3,5-dimethyl-1H-pyrazol-4-yl)-N-[(1R)-1-(3-methoxyphenyl)ethyl]-3-methylbenzamide]: more than 2000 nM and 415 nM.
Take `COc1cc(C(=O)N[C@H](CNC2CC2)c2c(F)cccc2F)ccc1-c1cn[nH]c1` [Example 266, N-[(1S)-2-(Cyclopropylamino)-1-(2,6-difluorophenyl)ethyl]-3-methoxy-4-(1H-pyrazol-4-yl)benzamide]: the concentration for half-maximal inhibition (IC50) in assay [1] was determined as 4.62 nM; in assay [2] it was 4.53 nM.
The corresponding values for `CC(O)c1cc(C(=O)N[C@H](C)c2ccccc2F)ccc1-c1cn[nH]c1` (stereo partly drawn) [Example 282, N-[(1R)-1-(2-fluorophenyl)ethyl]-3-(1-hydroxyethyl)-4-(1H-pyrazol-4-yl)benzamide] are 242 nM and 336 nM.
The corresponding values for `COc1cc(C(=O)NCc2cccc(C#N)c2)ccc1-c1cn[nH]c1` [Example 138, N-[(3-cyanophenyl)methyl]-3-methoxy-4-(1H-pyrazol-4-yl)benzamide] are 32.6 nM and 8.24 nM.
The matching figures for `COc1cc(C(=O)NC[C@@H](C)c2ccccc2)ccc1-c1cn[nH]c1` [Example 129, 3-methoxy-N-[(2S)-2-phenylpropyl]-4-(1H-pyrazol-4-yl)benzamide]: 34 nM and 33.1 nM.
With `COc1cc(C(=O)NCc2cc(Cl)ccc2Cl)ccc1-c1cn[nH]c1` [Example 76, N-(2,5-dichlorobenzyl)-3-methoxy-4-(1H-pyrazol-4-yl)benzamide], the IC50 in assay [1] amounted to 7.72 nM; in assay [2], 2.2 nM.
The matching figures for `COc1cc(C(=O)NC2(c3ccccc3)CCC2)ccc1-c1cn[nH]c1` [Example 222, 3-methoxy-N-(1-phenyl-cyclobutyl)-4-(1H-pyrazol-4-yl)benzamide]: 146 nM and 26 nM.
The matching figures for `Cc1cc(C(=O)N[C@H](CN(C)C)c2ccccc2)ccc1-c1cn[nH]c1` [Example 263, N-[(1S)-2-(Dimethylamino)-1-phenylethyl]-3-methyl-4-(1H-pyrazol-4-yl)benzamide]: 6.45 nM and 3.94 nM.
As for `C[C@@H](NC(=O)c1ccc(-c2cn[nH]c2)c(C#N)c1)c1ccc(F)cc1` [Example 193, 3-cyano-N-[(1R)-1-(4-fluorophenyl)ethyl]-4-(1H-pyrazol-4-yl)benzamide], the IC50 in assay [1] was found to be 873 nM; in assay [2], 289 nM.
The matching figures for `C[C@@H](NC(=O)c1ccc(-c2cn[nH]c2)c(CO)c1)c1ccccc1` [Example 272, 3-(hydroxymethyl)-N-[(1R)-1-phenylethyl]-4-(1H-pyrazol-4-yl)benzamide]: 284 nM and 58.8 nM.
As for `COc1cc(C(=O)NCc2c(F)cc(F)cc2F)ccc1-c1cn[nH]c1` [Example 89, 3-methoxy-4-(1H-pyrazol-4-yl)-N-[(2,4,6-trifluorophenyl)methyl] benzamide], the half-inhibitory concentration (IC50) in assay [1] is 21.9 nM; in assay [2], 11.1 nM.
For `COc1cc(C(=O)NCc2ccc(Br)cc2Cl)ccc1-c1cn[nH]c1` [Example 45, N-(4-bromo-2-chlorobenzyl)-3-methoxy-4-(1H-pyrazol-4-yl)benzamide], the IC50 stood at 16.9 nM in assay [1] and 4.69 nM in assay [2].
The corresponding values for `COc1cc(C(=O)NCc2ccccc2C)ccc1-c1cn[nH]c1` [Example 23, 3-methoxy-N-(2-methylbenzyl)-4-(1H-pyrazol-4-yl)benzamide] are 7.36 nM and 2.13 nM.
The corresponding values for `COc1cc(C(=O)NCc2ccc(F)c(OC)c2F)ccc1-c1cn[nH]c1` [Example 50, N-(2,4-difluoro-3-methoxybenzyl)-3-methoxy-4-(1H-pyrazol-4-yl)benzamide] are 64 nM and 16.7 nM.
As to `COc1cc(C(=O)NCc2cccc(C(=O)NC3CC3)c2)ccc1-c1cn[nH]c1` [Example 238, N-{[3-(cyclopropyl-carbamoyl)phenyl]methyl}-3-methoxy-4-(1H-pyrazol-4-yl)benzamide], the IC50 came out at 2.44 nM in assay [1] and 0.32 nM in assay [2].
The corresponding values for `COc1cc(C(=O)N[C@@H](c2c(F)cccc2F)C(O)CO)ccc1-c1cn[nH]c1` (stereo partly drawn) [Example 175, N-[(1S)-1-(2,6-difluorophenyl)-2,3-dihydroxy-propyl]-3-methoxy-4-(1H-pyrazol-4-yl)benzamide] are 34.9 nM and 19.3 nM.
The corresponding values for `COc1cc(-c2cn[nH]c2)ccc1C(=O)NC(c1ccccc1F)C(C)(C)O` (centres unmarked) [Example 218, N-[1-(2-fluorophenyl)-2-hydroxy-2-methylpropyl]-2-methoxy-4-(1H-pyrazol-4-yl)benzamide] are 24.7 nM and 6.52 nM.
